According to article PMC4851326, “Pharmacologic Comparison of Clinical Neutral Endopeptidase Inhibitors in a Rat Model of Acute Secretory Diarrhea” (The Journal of Pharmacology and Experimental Therapeutics, 2016):

Columns and labels:
[1] = target: T1, aminopeptidase N (Homo sapiens, UniProt P15144); assay: Purified peptidase assay, APN; format: biochemical; conditions: recombinant purified human enzyme; for prodrugs the active form was tested
T1 construct: purchased R&D Systems (Minneapolis, MN)
Description: (§1) Purified recombinant human enzymes were purchased from R&D Systems (Minneapolis, MN). […] Each substrate was diluted to 100 μM in the assay buffer recommended for each enzyme by the supplier. […] To these, 5 μl of diluted enzyme was added, followed by 10 μl of the quenched peptide substrate. The plates were incubated at 37°C until at least 10% substrate turnover or 5 μM product had formed. Fluorescence was measured using a Tecan Safire II (Excitation 320 nm/Emission 420 nm). Each plate included a standard curve of reaction product and positive (no enzyme) and negative (dimethyl sulfoxide vehicle) controls. Dose-response data were plotted and inhibition values (IC50) determined by linear regression analysis using GraphPad Prism (GraphPad Software, La Jolla, CA).

[2] = target: T2, NEP (Rattus norvegicus, UniProt P07861); assay: NEP enzyme activity in tissues after oral treatment; format: in vivo; conditions: 5 hours postdose, single oral dose, rats
T2 construct: NEP enzyme activity was measured in tissue homogenates; from tissue; host or cells: Wistar rat kidney, lung, duodenum, jejunum homogenates
T2 sequence (P07861 1-750): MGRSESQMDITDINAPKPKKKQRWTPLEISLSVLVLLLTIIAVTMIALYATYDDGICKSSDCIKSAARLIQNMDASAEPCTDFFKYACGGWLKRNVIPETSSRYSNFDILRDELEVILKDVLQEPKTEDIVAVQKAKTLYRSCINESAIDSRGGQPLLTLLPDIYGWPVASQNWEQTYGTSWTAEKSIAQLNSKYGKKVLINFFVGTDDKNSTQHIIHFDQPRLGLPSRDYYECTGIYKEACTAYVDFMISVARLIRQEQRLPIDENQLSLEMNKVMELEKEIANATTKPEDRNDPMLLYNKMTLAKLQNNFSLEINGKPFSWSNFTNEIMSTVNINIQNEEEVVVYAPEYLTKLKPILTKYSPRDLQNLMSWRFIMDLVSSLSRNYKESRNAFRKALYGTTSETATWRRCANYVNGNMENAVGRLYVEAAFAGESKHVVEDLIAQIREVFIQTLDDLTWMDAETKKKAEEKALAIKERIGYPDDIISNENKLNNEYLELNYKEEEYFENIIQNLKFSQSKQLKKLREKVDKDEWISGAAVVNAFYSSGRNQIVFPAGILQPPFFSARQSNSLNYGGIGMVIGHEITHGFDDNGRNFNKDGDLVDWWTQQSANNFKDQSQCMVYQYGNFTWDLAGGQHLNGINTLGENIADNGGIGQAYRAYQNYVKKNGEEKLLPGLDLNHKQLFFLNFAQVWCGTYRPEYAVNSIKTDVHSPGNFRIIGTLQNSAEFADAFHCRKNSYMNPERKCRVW
Description: Four or five 2-mm Zirconia beads (Biospec, Bartlesville, OK) were added to fresh weighed tissue specimens (50–250 mg). Assay buffer consisting of 50 mM Tris-HCl (pH 7.4), 200 mM NaCl, and 0.05% TritonX-100 was added (4 μl/mg), and the sample was homogenized for 1 minute using a bead beater (Biospec). Stored frozen homogenates were thawed at room temperature and centrifuged 10 minutes at 18,000g, and the protein concentration was determined for each supernatant. […] NEP substrate 2Abz-dArg-Gly-Leu-C2-Dnp (American Peptide, Sunnyvale, CA) was prepared at 1 mM in 20% acetonitrile/water and diluted to 100 μM in assay buffer, and 10 μl was dispensed to homogenate-containing wells. […] Kinetic data were plotted to determine the rate of product formation by linear regression with interpolation against a standard curve, and the rate was normalized to protein concentration.

[3] = target: T3, ECE-2 (Homo sapiens, UniProt P0DPD6); assay: Purified peptidase assay, ECE-2; format: biochemical; conditions: recombinant purified human enzyme; for prodrugs the active form was tested
T3 construct: purchased R&D Systems (Minneapolis, MN)
T3 sequence (P0DPD6 1-811): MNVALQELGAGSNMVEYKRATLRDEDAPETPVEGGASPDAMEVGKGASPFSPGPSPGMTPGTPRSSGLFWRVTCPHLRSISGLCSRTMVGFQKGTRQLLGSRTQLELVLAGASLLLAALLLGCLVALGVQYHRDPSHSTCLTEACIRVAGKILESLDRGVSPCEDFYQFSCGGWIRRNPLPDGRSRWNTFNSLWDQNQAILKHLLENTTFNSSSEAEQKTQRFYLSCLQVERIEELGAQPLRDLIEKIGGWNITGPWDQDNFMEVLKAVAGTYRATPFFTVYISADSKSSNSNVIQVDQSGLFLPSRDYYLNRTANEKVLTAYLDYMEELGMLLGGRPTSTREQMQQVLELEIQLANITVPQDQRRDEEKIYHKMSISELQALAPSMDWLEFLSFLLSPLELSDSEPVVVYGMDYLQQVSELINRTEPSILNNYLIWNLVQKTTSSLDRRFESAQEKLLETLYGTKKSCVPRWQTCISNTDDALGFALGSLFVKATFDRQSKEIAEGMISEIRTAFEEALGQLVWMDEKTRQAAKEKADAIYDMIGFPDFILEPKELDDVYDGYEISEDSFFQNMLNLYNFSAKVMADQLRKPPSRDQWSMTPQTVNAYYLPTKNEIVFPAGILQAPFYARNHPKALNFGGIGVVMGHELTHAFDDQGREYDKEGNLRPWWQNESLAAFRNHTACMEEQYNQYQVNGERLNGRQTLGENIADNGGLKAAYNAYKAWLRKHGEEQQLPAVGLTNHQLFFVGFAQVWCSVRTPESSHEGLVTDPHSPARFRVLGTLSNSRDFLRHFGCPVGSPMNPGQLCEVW
Description: as §1

T1 sequence (P15144 whole entry): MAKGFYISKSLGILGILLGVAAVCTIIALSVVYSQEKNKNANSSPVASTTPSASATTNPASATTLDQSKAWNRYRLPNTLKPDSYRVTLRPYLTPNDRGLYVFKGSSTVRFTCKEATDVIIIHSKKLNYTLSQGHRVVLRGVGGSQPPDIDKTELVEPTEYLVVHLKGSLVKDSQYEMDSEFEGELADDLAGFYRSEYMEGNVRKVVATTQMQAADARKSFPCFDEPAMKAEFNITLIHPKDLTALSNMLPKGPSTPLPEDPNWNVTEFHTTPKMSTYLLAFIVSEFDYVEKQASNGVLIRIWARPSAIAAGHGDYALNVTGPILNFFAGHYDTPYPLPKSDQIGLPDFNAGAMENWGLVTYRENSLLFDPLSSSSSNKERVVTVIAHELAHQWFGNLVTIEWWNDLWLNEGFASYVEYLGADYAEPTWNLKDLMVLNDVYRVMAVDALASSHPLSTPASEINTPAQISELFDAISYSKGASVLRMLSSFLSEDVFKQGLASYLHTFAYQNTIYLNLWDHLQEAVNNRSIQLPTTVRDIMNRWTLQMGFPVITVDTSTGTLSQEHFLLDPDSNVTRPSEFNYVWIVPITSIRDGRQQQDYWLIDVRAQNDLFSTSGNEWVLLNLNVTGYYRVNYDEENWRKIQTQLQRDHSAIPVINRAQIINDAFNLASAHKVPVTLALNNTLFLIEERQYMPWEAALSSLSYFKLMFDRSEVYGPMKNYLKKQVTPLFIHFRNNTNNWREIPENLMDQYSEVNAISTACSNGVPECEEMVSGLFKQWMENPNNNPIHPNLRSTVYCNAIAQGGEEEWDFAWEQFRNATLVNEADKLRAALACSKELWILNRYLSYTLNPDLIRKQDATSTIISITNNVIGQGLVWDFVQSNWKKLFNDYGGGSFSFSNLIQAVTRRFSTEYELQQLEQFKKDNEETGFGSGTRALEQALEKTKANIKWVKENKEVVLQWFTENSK

Compound: Cc1nc2ccc(CCCNC(=O)C3(C[C@@H](C)C(=O)O)CCCC3)cc2s1 [UK-505,749, (R)-2-methyl-3-(1-((3-(2-methylbenzo[d]thiazol-6-yl)propyl)carbamoyl)cyclopentyl)propanoic acid]
- IC50 [1]: > 100 µM
- Inhibition of NEP in the intestinal segments [2]: > 92%
- Inhibition of NEP in the intestinal segments ([2]; listed as UK-505,797): ≥ 97%
- IC50 [3]: 15 µM
